Test results from ChEMBL document CHEMBL4011644, “3-Hydroxy-N'-arylidenepropanehydrazonamides with Halo-Substituted Phenanthrene Scaffolds Cure P. berghei Infected Mice When Administered Perorally” (J Med Chem, 2017).
Calls of active or inactive are those of the source. The calls are words filed in the database; no cut-off is given here.

Key:
[1] = tested on: Plasmodium falciparum; assay: Antiplasmodial activity against chloroquine-sensitive asexual blood stages of Plasmodium falciparum 3D7 after 72 hrs by HRP2-based ELISA; assay type: functional; details: 3D7, 72 h
[2] = tested on: Plasmodium falciparum; assay: Antiplasmodial activity against multidrug-resistant asexual blood stages of Plasmodium falciparum Dd2 after 72 hrs by HRP2-based ELISA; assay type: functional; details: Dd2, 72 h
[3] = tested on: HepG2; assay: Cytotoxicity against human HepG2 cells by CellTiterGlo assay; assay type: cell-based
[4] = tested on: Plasmodium berghei; assay: Antiplasmodial activity against Plasmodium berghei infected in NMRI mouse assessed as reduction in parasitemia at 50 mg/kg, po administered at 4, 24, 48, 72 hrs post infection measured on day 4 post infection by Peter's test relative to control; assay type: functional; parameters: scale not given: the % may be the effect or the level left
[5] = tested on: Plasmodium berghei; assay: Antiplasmodial activity against Plasmodium berghei infected in NMRI mouse assessed as mean survival time at 50 mg/kg, po administered at 4, 24, 48, 72 hrs post infection by Peter's test (reference value: 6 to 7 day); assay type: functional
[6] = tested on: Plasmodium berghei; assay: Antiplasmodial activity against Plasmodium berghei infected in NMRI mouse assessed as reduction in parasitemia at 30 mg/kg, po administered at 4, 24, 48, 72 hrs post infection measured on day 4 by Peter's test relative to control; assay type: functional; parameters: scale not given: the % may be the effect or the level left
[7] = tested on: Plasmodium berghei; assay: Antiplasmodial activity against Plasmodium berghei infected in NMRI mouse assessed as mean survival time at 30 mg/kg, po administered at 4, 24, 48, 72 hrs post infection by Peter's test (reference value: 6 to 7 day); assay type: functional
[8] = tested on: Plasmodium berghei; assay: Antiplasmodial activity against Plasmodium berghei infected in NMRI mouse assessed as parasite-free mouse at 30 mg/kg, po administered at 4, 24, 48, 72 hrs post infection measured on day 30 by Peter's test; assay type: functional, organism-based
[9] = tested on: Mus musculus; assay: Toxicity in NMRI mouse infected with Plasmodium berghei assessed as overt toxicity at 50 mg/kg, ip administered at 4, 24, 48, 72 hrs post infection; assay type: organism-based; details: in vivo
[10] = tested on: Plasmodium berghei; assay: Antiplasmodial activity against Plasmodium berghei infected in NMRI mouse assessed as reduction in parasitemia at 10 mg/kg, po administered at 4, 24, 48, 72 hrs post infection measured on day 4 by Peter's test relative to control; assay type: functional; parameters: scale not given: the % may be the effect or the level left
[11] = tested on: Plasmodium berghei; assay: Antiplasmodial activity against Plasmodium berghei infected in NMRI mouse assessed as mean survival time at 10 mg/kg, po administered at 4, 24, 48, 72 hrs post infection measured on day 4 by Peter's test (reference value: 6 to 7 day); assay type: functional
[12] = tested on: Plasmodium berghei; assay: Antiplasmodial activity against Plasmodium berghei infected in NMRI mouse assessed as reduction in parasitemia at 3 mg/kg, po administered at 4, 24, 48, 72 hrs post infection measured on day 4 by Peter's test relative to control; assay type: functional; parameters: scale not given: the % may be the effect or the level left
[13] = tested on: Plasmodium berghei; assay: Antiplasmodial activity against Plasmodium berghei infected in NMRI mouse assessed as mean survival time at 3 mg/kg, po administered at 4, 24, 48, 72 hrs post infection measured on day 4 by Peter's test (reference value: 6 to 7 day); assay type: functional
[14] = tested on: Plasmodium berghei; assay: Antiplasmodial activity against Plasmodium berghei infected in NMRI mouse assessed as parasite free mouse at 3 mg/kg, po administered at 4, 24, 48, 72 hrs post infection measured on day 4 by Peter's test; assay type: functional, organism-based
[15] = Chemical stability of compound in tween 20/ethanol/phosphate buffer at 1 mg/ml at pH 7.5 assessed as compound remaining after 6 hrs by HPLC analysis; assay type: physicochemical; details: read-out: Stability
[16] = Drug degradation in Tween 20/ethanol/phosphate buffer at 1 mg/ml at pH 7.5 after 24 hrs by HPLC analysis
[17] = Solubility of compound in phosphate buffer at pH 2.5 after 1 hr by HPLC analysis; assay type: physicochemical; details: pH 2.5, 1 h
[18] = Solubility of compound in phosphate buffer at pH 7.5 after 1 hr by HPLC analysis; assay type: physicochemical; details: pH 7.5, 1 h
[19] = tested on: Plasmodium falciparum; assay: Effect on female gamete formation in transgenic GFP-fused Plasmodium falciparum NF54 mature stage-5 gametocytes at 1 uM after 72 hrs under reduced oxygen tension by Mitotracker Red CMH2XRos staining based confocal microscopic method; assay type: functional
[20] = tested on: Plasmodium falciparum; assay: Effect on male gamete formation in transgenic GFP-fused Plasmodium falciparum NF54 mature stage-5 gametocytes at 1 uM after 72 hrs under reduced oxygen tension by Mitotracker Red CMH2XRos staining based confocal microscopic method; assay type: functional
[21] = tested on: Plasmodium falciparum; assay: Gametocytocidal activity against transgenic GFP-fused Plasmodium falciparum NF54 […] stage gametocytes after 72 hrs by Mitotracker Red CMH2XRos staining based confocal microscopic method; assay type: functional; details: NF54, 72 h
[22] = tested on: Plasmodium falciparum; assay: Gametocytocidal activity against transgenic GFP-fused Plasmodium falciparum NF54 early stage gametocytes after 72 hrs by Mitotracker Red CMH2XRos staining based confocal microscopic method; assay type: functional; details: NF54, 72 h
[23] = tested on: Plasmodium berghei; assay: […] activity against GFP-fused Plasmodium berghei liver stage parasites infected in human HepG2-A16-CD81-EGFP cells after 48 hrs by luciferase reporter gene assay; assay type: functional

**Q.** With `N/C(CC(O)c1cc2c(F)cc(F)cc2c2cc(C(F)(F)F)ccc12)=N\N=C\c1ccc(F)cc1` (stereo not drawn) as the molecule, how does the IC50 [1] read?
**A.** 2.3 nM

**Q.** What about the IC50 [2] of the same molecule?
**A.** 2.9 nM

**Q.** And the IC50 [3]?
**A.** 27700 nM

**Q.** What about the Activity [4] of the same molecule?
**A.** 99.9%

**Q.** And the MST [5]?
**A.** 22 days

**Q.** And the Activity [6]?
**A.** 99.4%

**Q.** And the MST [7]?
**A.** 25.7 days

**Q.** What about the Activity [8] of the same molecule?
**A.** inactive

**Q.** What about the Activity [9] of the same molecule?
**A.** Non-Toxic

**Q.** What about the Activity [10] of the same molecule?
**A.** 99.5%

**Q.** What about the MST [11] of the same molecule?
**A.** 24.7 days

**Q.** And the Activity [12]?
**A.** 78%

**Q.** And the MST [13]?
**A.** 7 days

**Q.** What about the Activity [14] of the same molecule?
**A.** inactive

**Q.** And the remaining at 6 h, 1 mg/ml [15]?
**A.** > 95%

**Q.** What about the Drug degradation [16] of the same molecule?
**A.** 31%

**Q.** What about the solubility [17] of the same molecule?
**A.** Insoluble

**Q.** What about the solubility [18] of the same molecule?
**A.** Insoluble

**Q.** And the Activity [19]?
**A.** inactive

**Q.** What about the Activity [20] of the same molecule?
**A.** inactive

**Q.** And the IC50 [21]?
**A.** 66 nM

**Q.** What about the IC50 [22] of the same molecule?
**A.** 200 nM

**Q.** And the IC50 [23]?
**A.** 6900 nM
